According to article PMC8578705 (Cell Reports, 2021):

Legend:
[1] = tested on: mock-transfected HEK cells; assay: ER Ca2+ release from permeabilized mock-transfected HEK cells; type: cell-based, Homo sapiens; conditions: ML-SA1 0-100 μM
Procedure: Figure S5. Evidence that over-expressed TRPML1 releases Ca2+ from ER, and that erlin 2 does not mediate quantal Ca2+ release
Ca2+ uptake into the ER of permeabilized HEK cells was initiated by addition of ATP (1.5 mM), before adding CPA (10 μM) and then the indicated […]
concentration of ML-SA1 (0-100 μM).
(B) Summary results from experiments similar to those shown in Figure 4A show half-times (t1/2) for loss of ER Ca2+ evoked by the indicated concentrations of ML-SA1 (mean ± SEM, n = 4, each with 2 […]
(C) Addition of ATP (1.5 mM) to permeabilized HEK cells stimulates Ca2+ uptake into the ER, reported by the increase in Mag-fluo 4 fluorescence. The response is abolished by CPA (10 µM) added 60 s before ATP. Mean ± SEM, n = 4, each with 2 replicates. RFU, relative fluorescence units.
(D) Permeabilized HEK cells expressing CFP-TRPML1 were treated (60 min) with vehicle (DMSO), bafilomycin A1 (1 µM to inhibit the lysosomal H+ pump) or FCCP (10 µM to dissipate H+ gradients) before addition of ATP (1.5 mM) to initiate Ca2+ uptake. After addition of CPA (10 μM), ML-SA1 (30 µM) was added where indicated. Mean ± SD of 3 replicates. […]
(F) TIRFM images show expression of CFP-TRPML1 and EGFP-IP3R1 in HEK cells expressing both proteins, typical of 3 independent experiments (~10 cells in each). […] It was impracticable, when most CFP-TRPML1 is lysosomal, to quantify any colocalization with IP3Rs. […]

[2] = biological target: T1, CFP-TRPML1 (Homo sapiens, UniProt Q9GZU1); assay: ER Ca2+ release from permeabilized HEK cells expressing CFP-TRPML1; type: cell-based
T1 construct: host or cells: HEK cells, transient transfection
Source text: Figure 4 Neither ER reorganization nor luminal Ca^2+ mediates quantal Ca^2+ release (A) Effects of the indicated concentrations of ML-SA1 on the ER Ca^2+ content of permeabilized HEK cells expressing CFP-TRPML1. (B) Semi-logarithmic plots show mono-exponential loss of ER Ca^2+ after treatment with ML-SA1. Results (A and B) are typical of four experiments, each with duplicate determinations. Summary results are in Figure S5B. (C and D) Permeabilized DT40-IP3R1 cells were loaded to steady state with Ca^2+ before addition of thapsigargin (TG, 1 μM) to inhibit SERCAs. […] Results are typical of 29–36 experiments. […] See also Figure S5.
Incubation of cells with the acetoxymethylester (AM) of Mag-fluo 4 traps low-affinity forms of the indicator ( KdCa = 1.15 mM measured in situ) within the ER. Fluorescence, which is approximately linearly related to ER free [Ca^2+] (since [Ca^2+]ER < KdCa ), can then be used, without further calibration, to reliably report free [Ca^2+] within the ER lumen ([Rossi and Taylor, 2020]). The ER of DT40 or HEK293 cells was loaded with indicator by incubating cells with Mag-fluo 4 AM (20 μM, 60 min, 22°C) in HEPES-buffered saline (HBS: 135 mM NaCl, 5.9 mM KCl, 11.6 mM HEPES, 1.5 mM CaCl2, 11.5 mM glucose, 1.2 mM MgCl2, pH 7.3) as described ([Rossi et al., 2009]). […]

[3] = tested on: SERCAs; assay: Ca2+ uptake by the intracellular stores of permeabilized HEK-IP3R1 cells; type: cell-based, Homo sapiens; conditions: heparin 10 mg/mL
Procedure: Figure S6. Effects of heparin, 2-APB and dequalinium on IP3Rs and Ca2+ uptake by intracellular […]
Related to Figures 5 and 6.
(A) Structures of the antagonists used.
CLM at 20 °C. Mean ± SEM, n = 3.
(C-F) Permeabilized HEK-IP3R1 cells were loaded with Ca2+, and SERCA was then inhibited with CPA (10 μM) before addition of DMSO (1% v/v; C) or dequalinium (10-100 μM, D-F), and then the indicated […]
Mean of 2 replicates, typical of 5 experiments.
(G) Summary results (mean ± SEM, n = 5, each with duplicate determinations) show Ca2+ released by […]
ER Ca2+ content was measured 20
(H-J) Similar analyses of the effects of heparin (10 mg/mL, I) or 2-APB (125 μM, J). Means of 2 replicates, typical of 3-5 experiments.
(K) Effects of dequalinium (50 μM), heparin (10 mg/mL) or 2-APB (125 μM) on Ca2+ uptake by the intracellular stores of permeabilized HEK-IP3R1 cells. Mean ± SD of 4-6 replicates, typical of 4 […]
(L) and the rate of Ca2+ uptake (M). ER Ca2+ content was measured 180 s after addition of ATP (L).
Mean ± SEM, n = 4, each with 4-6 determinations. ****P < 0.0001, ***P < 0.001, *P < 0.05 one-way ANOVA with Bonferroni's test relative to control.

[4] = biological target: T2, IP3R1 (HEK-IP3R1 cells) (Rattus norvegicus, UniProt P29994); assay: Ca2+ release from permeabilized HEK-IP3R1 cells; type: cell-based; conditions: at the concentrations used (heparin 10 mg/mL, dequalinium 50 μM, 2-APB 125 μM), permeabilized HEK-IP3R1 cells
T2 construct: expressed in transfected cells
Procedure: Fluorescence, which is approximately linearly related to ER free [Ca^2+] […] Ca^2+-free CLM comprised: 20 mM NaCl, 140 mM KCl, 1 mM EGTA, 20 mM PIPES, 2 mM MgCl2, pH 7.0. […] MgATP (1.5 mM) was added to initiate Ca^2+ uptake, and when the ER had loaded to steady state with Ca^2+ (∼150 s), ligands were added. Responses to the ligands show ER Ca^2+ contents as either time courses or, in summary results, as the Ca^2+ content recorded 20 s after addition of the stimulus. The distribution of samples across 96-well plates was varied between experiments to avoid any systematic ‘position-related’ artifacts. HEK-G-CEPIA1er cells were permeabilized and assayed as described for Mag-fluo 4-loaded cells.
For equilibrium binding and concentration-effect relationships, results from each experiment were fitted to Hill equations (PRISM) from which pIC50 (-log of half-maximal inhibitory concentration) or pEC50 (-log of half-maximally effective concentration) values were determined.

T2 sequence (P29994 1-2735 isoform P29994-2): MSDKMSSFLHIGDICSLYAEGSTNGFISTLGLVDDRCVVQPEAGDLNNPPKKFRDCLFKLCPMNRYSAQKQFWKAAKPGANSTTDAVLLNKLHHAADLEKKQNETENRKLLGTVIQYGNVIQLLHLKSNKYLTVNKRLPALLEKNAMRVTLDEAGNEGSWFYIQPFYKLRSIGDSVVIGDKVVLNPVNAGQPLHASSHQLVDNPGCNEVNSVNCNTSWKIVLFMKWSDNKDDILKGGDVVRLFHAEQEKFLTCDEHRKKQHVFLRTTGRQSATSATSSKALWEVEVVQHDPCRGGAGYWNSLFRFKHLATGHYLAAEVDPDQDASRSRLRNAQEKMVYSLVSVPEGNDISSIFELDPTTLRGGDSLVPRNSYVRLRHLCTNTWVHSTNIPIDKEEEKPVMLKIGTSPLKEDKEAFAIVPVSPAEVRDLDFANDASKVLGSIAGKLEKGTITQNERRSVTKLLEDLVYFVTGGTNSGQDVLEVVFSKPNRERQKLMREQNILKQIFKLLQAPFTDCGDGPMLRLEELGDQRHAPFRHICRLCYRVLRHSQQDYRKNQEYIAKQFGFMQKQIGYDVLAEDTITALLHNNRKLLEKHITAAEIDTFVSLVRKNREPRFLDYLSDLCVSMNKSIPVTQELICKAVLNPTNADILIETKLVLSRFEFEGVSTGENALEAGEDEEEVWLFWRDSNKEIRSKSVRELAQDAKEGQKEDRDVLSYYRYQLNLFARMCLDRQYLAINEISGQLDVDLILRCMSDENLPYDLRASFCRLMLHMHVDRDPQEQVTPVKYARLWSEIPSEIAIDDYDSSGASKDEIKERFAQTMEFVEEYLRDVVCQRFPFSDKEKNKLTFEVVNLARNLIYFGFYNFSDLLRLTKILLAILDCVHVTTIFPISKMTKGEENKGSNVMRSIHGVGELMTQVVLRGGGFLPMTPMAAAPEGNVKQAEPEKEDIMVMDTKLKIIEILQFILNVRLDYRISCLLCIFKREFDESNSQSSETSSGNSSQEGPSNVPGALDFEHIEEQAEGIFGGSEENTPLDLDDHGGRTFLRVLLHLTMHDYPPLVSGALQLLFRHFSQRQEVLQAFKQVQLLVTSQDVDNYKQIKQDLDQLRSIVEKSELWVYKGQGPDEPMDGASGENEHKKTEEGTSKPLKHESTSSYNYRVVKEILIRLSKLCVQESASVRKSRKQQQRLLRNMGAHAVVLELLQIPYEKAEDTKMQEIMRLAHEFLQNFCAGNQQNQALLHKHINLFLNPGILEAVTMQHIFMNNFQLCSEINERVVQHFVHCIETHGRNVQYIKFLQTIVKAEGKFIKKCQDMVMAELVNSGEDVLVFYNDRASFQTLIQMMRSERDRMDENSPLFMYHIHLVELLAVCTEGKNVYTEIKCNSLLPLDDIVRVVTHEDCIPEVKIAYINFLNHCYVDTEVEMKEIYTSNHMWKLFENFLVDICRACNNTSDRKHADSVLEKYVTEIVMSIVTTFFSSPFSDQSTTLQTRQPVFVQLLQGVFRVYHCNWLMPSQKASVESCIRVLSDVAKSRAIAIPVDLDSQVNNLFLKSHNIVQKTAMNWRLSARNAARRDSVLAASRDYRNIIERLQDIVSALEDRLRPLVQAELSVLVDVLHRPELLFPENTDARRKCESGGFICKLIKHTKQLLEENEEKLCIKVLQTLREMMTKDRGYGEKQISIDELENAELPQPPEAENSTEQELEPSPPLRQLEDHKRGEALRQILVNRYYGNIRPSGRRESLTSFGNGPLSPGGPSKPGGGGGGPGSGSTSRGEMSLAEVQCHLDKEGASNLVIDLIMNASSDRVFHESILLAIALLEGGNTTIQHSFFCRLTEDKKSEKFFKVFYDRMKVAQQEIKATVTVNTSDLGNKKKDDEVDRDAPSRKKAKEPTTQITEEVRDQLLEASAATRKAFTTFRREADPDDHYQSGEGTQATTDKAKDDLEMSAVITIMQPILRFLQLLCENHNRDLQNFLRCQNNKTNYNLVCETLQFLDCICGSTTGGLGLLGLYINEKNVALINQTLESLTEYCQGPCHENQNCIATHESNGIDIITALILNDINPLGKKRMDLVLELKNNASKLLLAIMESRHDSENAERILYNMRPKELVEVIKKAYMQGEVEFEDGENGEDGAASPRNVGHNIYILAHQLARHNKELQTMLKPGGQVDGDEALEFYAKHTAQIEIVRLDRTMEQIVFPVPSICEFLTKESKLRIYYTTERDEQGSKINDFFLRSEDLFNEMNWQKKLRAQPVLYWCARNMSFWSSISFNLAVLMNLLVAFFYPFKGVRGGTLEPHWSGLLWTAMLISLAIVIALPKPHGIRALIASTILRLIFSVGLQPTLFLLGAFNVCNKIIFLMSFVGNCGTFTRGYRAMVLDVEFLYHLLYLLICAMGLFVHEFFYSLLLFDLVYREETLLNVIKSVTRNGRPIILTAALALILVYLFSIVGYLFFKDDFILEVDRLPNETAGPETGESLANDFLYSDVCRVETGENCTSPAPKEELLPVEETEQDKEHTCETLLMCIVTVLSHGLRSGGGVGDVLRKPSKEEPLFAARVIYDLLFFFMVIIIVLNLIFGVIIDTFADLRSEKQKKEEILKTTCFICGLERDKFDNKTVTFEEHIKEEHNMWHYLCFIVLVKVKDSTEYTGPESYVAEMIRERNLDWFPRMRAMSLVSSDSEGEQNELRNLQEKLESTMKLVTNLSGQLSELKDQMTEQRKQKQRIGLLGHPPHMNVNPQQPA
T1 sequence (Q9GZU1 whole entry): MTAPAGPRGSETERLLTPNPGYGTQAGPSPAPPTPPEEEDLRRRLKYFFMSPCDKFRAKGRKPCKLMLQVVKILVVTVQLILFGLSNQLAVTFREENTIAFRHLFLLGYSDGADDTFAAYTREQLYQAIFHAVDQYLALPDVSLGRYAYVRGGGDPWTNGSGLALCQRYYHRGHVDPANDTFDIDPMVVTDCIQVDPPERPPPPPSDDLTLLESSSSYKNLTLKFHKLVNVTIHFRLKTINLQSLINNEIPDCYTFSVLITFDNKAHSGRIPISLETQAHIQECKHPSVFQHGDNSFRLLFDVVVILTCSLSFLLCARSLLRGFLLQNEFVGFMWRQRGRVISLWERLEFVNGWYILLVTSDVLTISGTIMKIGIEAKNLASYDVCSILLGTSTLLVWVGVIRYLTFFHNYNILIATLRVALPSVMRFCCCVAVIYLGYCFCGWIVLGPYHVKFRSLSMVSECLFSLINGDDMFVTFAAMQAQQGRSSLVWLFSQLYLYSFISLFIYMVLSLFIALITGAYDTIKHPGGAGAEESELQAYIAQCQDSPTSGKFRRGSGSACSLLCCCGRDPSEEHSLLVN

Row | Substance | response to ML-SA1 [1] | Ca2+ release from the ER [2] | effect on SERCAs (Ca2+ uptake) [3] | block of IP3-evoked Ca2+ release [4]
1 | ML-SA1 | do not respond | concentration-dependent Ca^2+ release | – | –
2 | Heparin, sodium salt | – | – | partial inhibition | completely
